Reference: US20160346266A1, “REDUCTION OR PREVENTION OF ALCOHOL REACTION WITH DIETARY SUPPLEMENTS” (NOGLO LLC, priority 2012, published 2016)

Legend:
[1] = tested on: glutathione; conditions: supplementation, two weeks; cited from earlier work
[2] = tested on: volunteers who experience all symptoms of the alcohol reaction; assay: Studies in individuals (Example 5): symptoms of the alcohol reaction after two standard alcohol beverages; format: in vivo, human; conditions: Subject 4; 1500 mg daily for two weeks + dose one hour before two standard alcohol beverages
Method: In order to evaluate the efficacy of certain embodiments of the invention, subjects took various forms of the supplements daily for two weeks. The subjects then consumed two standard alcohol beverages and their symptoms were evaluated. One hour prior to drinking the alcohol beverages, the subjects also consumed another dose of the formulation. Overt physical symptoms and self-reported physical symptoms were used as assessments for the alcohol reaction. These experimental tests include eleven subjects. All experimental subjects were unpaid volunteers who experience all symptoms of the alcohol reaction. The following symptoms were assessed: facial redness, heart rate, self-evaluated body temperature, headache, nausea, and general physical discomfort. These are symptoms of the alcohol reaction that have all been directly linked with an increase in blood acetaldehyde.

[3] = tested on: NAD; conditions: nicotinamide supplementation; one study; cited from earlier work

Row | Structure (SMILES) | increase levels of glutathione [1] | facial redness [2] | heart rate [2] | raising NAD concentrations [3]
1 | O=C1O[C@H]([C@@H](O)CO)C(O)=C1O [Vitamin C] | 50% | – | – | –
2 | NC(=O)c1cccnc1 [nicotinamide] | – | reductions | reductions | 24 fold
